These results are taken from patent US20250288591A1, “TRIMEPRAZINE FOR USE IN TREATING TRIGEMINAL NEURALGIA AND FOR REDUCING PAIN RELATED THERETO” (UNDAUNTED BIO, INC., priority 2022, published 2025).

For one series, the system named is histamine H1-receptor. Conditions: more potent than Z-triprolidine; cited from earlier work.
For series [1] the following is noted: after application of 5% lidocaine plaster to skin; cited from earlier work.
The next series deals with mu-opioid receptors (Homo sapiens, UniProt P35372). Conditions: relative to morphine; cited from earlier work.
mu-opioid receptors, sequence (P35372 whole entry): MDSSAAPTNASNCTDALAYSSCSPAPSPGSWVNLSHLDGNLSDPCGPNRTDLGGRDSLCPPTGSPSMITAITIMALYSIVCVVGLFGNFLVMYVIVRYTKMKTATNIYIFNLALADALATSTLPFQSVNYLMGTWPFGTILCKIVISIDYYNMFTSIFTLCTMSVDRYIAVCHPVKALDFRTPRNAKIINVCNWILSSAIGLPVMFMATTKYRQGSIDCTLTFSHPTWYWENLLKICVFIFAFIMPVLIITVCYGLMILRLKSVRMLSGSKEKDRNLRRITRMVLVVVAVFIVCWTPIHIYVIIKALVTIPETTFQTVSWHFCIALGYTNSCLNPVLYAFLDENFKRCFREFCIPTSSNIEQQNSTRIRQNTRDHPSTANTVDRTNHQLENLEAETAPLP
The conditions of series [2]: 100-400 mg/d; 8 patients with classic TN; cited from earlier work.
For series [3] the following is noted: 23 patients, add-on therapy; cited from earlier work.
For series [4] the following is noted: 10 patients with TN; cited from earlier work.
For series [5] the following is noted: PHN; study in Japan; cited from earlier work.
Series [6] is described as follows: Observed effect of trimeprazine on pain of post-herpetic neuralgia and trigeminal neuralgia. The conditions noted are these: in vivo. The text has this: Post-herpetic pain involves the dorsal root ganglion (DRG), and trigeminal neuralgia involves the trigeminal ganglion (TG). Both the DRG and the TG are involved in the perception of itch and pain. Chronic neuropathic pain is a hypersensitivity state that results from peripheral and central sensitization. It is increasingly appreciated that chronic itch and chronic cough are also hypersensitivity syndromes.

Series [7] in a line: Case report: patient with classic trigeminal neuralgia treated with trimeprazine. The format is in vivo, human. The text has this:
A middle-aged patient suffers from classic trigeminal neuralgia presenting with sharp, lancinating, severe pain in their left face precipitated by showering, eating, facial animation, touch of their facial skin and nose, and brushing their teeth. The episodes of pain are initiated by the stimuli above and immediately stop all other activity until they subside in several seconds. Their behavior is modified to avoid the stimuli above, even affecting how they speak and eats. […] Their daily activities are dominated by fear of inducing another attack. […] They had no remedy for these terrible pains before treatment with trimeprazine. The patient began treatment with trimeprazine 5 mg morning and evening. The second day of the course the intensity and frequency of the attacks were in decline. […] Since then, they have noted some discomfort in their face but not the sharp, almost unbearable pain of before. […] On most days they take no medication now. […] They note that this is a common side-effect for them to experience if a medication has any potential for causing drowsiness.

As for `Cc1ccc(/C(=C\CN2CCCC2)c2ccccn2)cc1` [E-triprolidine], the “potency relative to Z-triprolidine” value in the series on histamine H1-receptor was 1000 fold.
For `CCN(CC)CC(=O)Nc1c(C)cccc1C` [Lidocaine], the “share of the drug that reaches the systemic circulation” value in series [1] is on record as 3%.
With `CC[C@@H](c1cccc(O)c1)[C@@H](C)CN(C)C` [Tapentadol], the “potency in binding mu-opioid receptors, times less potent than morphine” value at mu-opioid receptors is on record as 18 times.
Regarding `CC1(C)O[C@@H]2[C@@H](CO[C@@]3(COS(N)(=O)=O)OC(C)(C)O[C@@H]23)O1` [Topiramate], the “patients in whom the drug was found effective” value in series [2] was 75%.
Take `CC[C@@H](C(N)=O)N1CCCC1=O` [levetiracetam, Levetiracetam]: the “reduction in number of daily attacks” value in [3] is listed as 62%. Further, the improvement in series [4] was 50-90%.
With `CC(C)C[C@H](CN)CC(=O)O` [pregabalin, Pregabalin], the “analgesic property relative to gabapentin” value in series [5] is recorded as 6 times.
In the case of `CC(CN(C)C)CN1c2ccccc2Sc2ccccc21` (stereo not drawn) [trimeprazine], the “effect on pain of post-herpetic neuralgia and trigeminal neuralgia” value in series [6] was “observed to treat the pain”. In addition, the side-effects result in series [7] (5 mg tablets, one patient) is reported as “no side-effects other than drowsiness”. Also, the pain result in series [7] (after four days of medication, 5 mg morning and evening) is “all pain was gone”. The “residual discomfort in face” value in series [7] (later use, ½ to 1 pill of 5 mg once or twice a day) is listed as “successfully alleviated”. Also, in series [7] (second day of the course, 5 mg morning and evening, one patient), the “intensity and frequency of the attacks” value was “in decline”.
